Measured values reported in patent US8673909B2, “Indole compounds and methods for treating visceral pain” (NeurAxon, Inc., priority 2007, dated 2014).
“Also recorded” adds a separate entry of the source.

Tests used:
[1] = test system: rats with L5/L6 spinal nerve ligation; assay: Chung spinal nerve ligation (SNL) model of neuropathic-like pain; type: in vivo; conditions: rat, 30 mg/kg i.p.
Procedure: (a) Chung Model of Injury-induced Neuropathic-like Pain: The experimental designs for the Chung Spinal Nerve Ligation SNL Model assay for neuropathic pain are depicted in the Figure below. Nerve ligation injury was performed according to the method described by Kim and Chung (Kim and Chung, Pain 50:355-363, 1992). This technique produces signs of neuropathic dysesthesias, including tactile allodynia, thermal hyperalgesia, and guarding of the affected paw. Rats were anesthetized with halothane, and the vertebrae over the L4 to S2 region were exposed. The L5 and L6 spinal nerves were exposed, carefully isolated, and tightly ligated with 4-0 silk suture distal to the DRG. After ensuring homeostatic stability, the wounds were sutured, and the animals allowed to recover in individual cages. Sham-operated rats were prepared in an identical fashion except that the L5/L6 spinal nerves were not ligated. […] After a period of recovery following the surgical intervention, rats show enhanced sensitivity to painful and normally non-painful stimuli.

[2] = target: Recombinant human inducible NOS (iNOS) (Homo sapiens, UniProt P35228); assay: Human iNOS assay, radiometric; type: biochemical; conditions: Table 10, human iNOS; read-out: iNOSh
Procedure: Recombinant human inducible NOS (iNOS) was produced in Baculovirus-infected Sf9 cells (ALEXIS). […] 15 μL of test substances are added to the mixture with the specific enzyme and pre-incubated at RT for 15 min. • 2. […] The incubation is carried out at 37° C. for 45 min. • 4. […] An aliquot 70 μL of the supernatant is added to 100 μL scintillation fluid. • 8.
The total volume of the reaction mixture is 150 μL in every well. All assays are performed at least in duplicate. Standard deviations are 10% or less.

[3] = test system: rats with experimental pancreatitis; assay: Pancreatitis visceral pain model (DBTC), referred abdominal hypersensitivity, von Frey; type: in vivo, rat
Procedure: Adult male Sprague Dawley rats (Harlan, Indianapolis, Ind.), weighing 150-200 g were maintained in a climate-controlled room with ad lib food and water on a 12-h light/dark cycle (lights on at 07:00 hours). All procedures followed the policies of the International Association for the Study of Pain and the NIH guidelines for the handling and use of laboratory animals. Studies were approved by the University of Arizona IACUC.
Pancreatitis was produced by a tail vein injection of dibutyltin dichloride (DBTC, Aldrich, Milwaukee, Wis., 0.25 cc) dissolved in 100% ethanol at a dose of 8 mg/kg under isofluorane anesthesia (2-3 liters/min, 4.0%/vol until anesthetized, then 2.5%/vol throughout the procedure) (Vera-Portocarrero et al., 2006). Control animals were injected with the vehicle solution only (100% ethanol, 0.25 cc).
Referred abdominal hypersensitivity in the pancreatitis model was quantified by measuring the number of withdrawals events evoked by application of a calibrated von Frey filament (determined by either abdominal withdrawal, licking of the abdominal area, or whole body withdrawal). Rats were placed inside Plexiglas boxes on an elevated fine fiberglass screen mesh and acclimated for 30 minutes before testing. A 4 g von Frey filament was applied from underneath through the mesh floor, to the abdominal area at different points on the surface. […] The mean occurrence of withdrawal events in each trial is expressed as the number of responses to 10 applications as previously described (Vera-Portocarrero et al., 2003).
Significant differences between each experimental group for the behavioral test across time were detected by a two-factor ANOVA follow by the Fishers Least Significance Difference post-hoc test. One-factor ANOVA was used to detect significant differences in behavioral outcomes within each experimental group over time. A linear regression analysis was used to detect the dose-dependency of the effects. Significance was established at the p<0.05 level.

| Compound | reversal of tactile hyperthesia [1] | reversal of thermal hyperalgesia (antihyperalgesic effect) [1] | IC50 [2] [µM] | reversal of tactile allodynia in pancreatitis visceral pain model [3] |
| --- | --- | --- | --- | --- |
| CN1CCC(c2c[nH]c3ccc(NC(=N)c4cccs4)cc23)C1 (single isomer, unassigned) [Compound 6b, N-(3-(1-Methylpyrrolidin-3-yl)-1H-indol-5-yl)thiophene-2-carboximidamide] | reversal of tactile hyperthesia | reversal of thermal hyperalgesia; also recorded: clear antihyperalgesic effect | 20 | reverse the tactile allodynia |
| CN1CCC(c2c[nH]c3ccc(NC(=N)c4cccs4)cc23)C1 (single isomer, unassigned) [Compound 6a, N-(3-(1-Methylpyrrolidin-3-yl)-1H-indol-5-yl)thiophene-2-carboximidamide] | not | only weakly | 25 | does not reverse tactile allodynia |
